Reference: patent US5006448A, “Photographic material and process” (Eastman Kodak Company, priority 1989, dated 1991)

Assay: Imbibition test of intrinsic inhibition strength of free inhibitors
Details: inhibitor prebath 5×10^-5 M, pH 10 carbonate buffer plus 0.1% dimethylformamide, 38° C., 2 min
Text: Development inhibitors are generally released imagewise from an incorporated DIR compound during processing of the exposed photographic element. To evaluate the intrinsic inhibition strength of such inhibitors, independent of DIR release, an imbibition test is used. This involves imbibing an exposed film strip with a solution containing a given concentration of the free inhibitor to be tested. Nitrogen burst agitation of the imbibing solution improves the repeatability and effectiveness of inhibitor incorporation. The measured strength obtained by this test serves as an important guide in selecting inhibitors for desired photographic acutance improvements.
Film samples for imbibition testing of inhibitors were prepared having the following schematic layer structure and using a silver bromoiodide emulsion containing 6.4 mole % iodide (numerical values denote coating coverages in mg/m^2 and the silver halide values are for equivalent weights of silver):
Film strips cut from this coated element were exposed through a graduated density test object and a Kodak Wratten 99 (green) filter. Before development a strip was immersed at 38° C. under nitrogen agitation in each of the separate prebaths containing a test inhibitor at 5×10^-5 M concentration in a pH 10 carbonate buffer plus 0.1% dimethylformamide. As controls, each test set included a check strip which was immersed in a prebath containing no inhibitor and strips immersed in prebaths containing the comparison inhibitors phenylmercaptotetrazole (CI-1) and ethylmercaptotetrazole (CI-2). Photographic processing was carried out at 38° C. in the following steps:
The density of each test strip at this same exposure was noted and the inhibition strength number (I.S. No.) calculated using the equation: [formula]
Larger I.S. numbers for given inhibitors indicate stronger inhibition resulting in less dye density formed. Table IV lists these […], as well as calculated log P values, for a number of inhibitors released by compounds of the invention and for comparison inhibitors CI-1 through CI-8. It can be seen that, at equivalent partition coefficient (Log P) values, the inhibitors useful in the invention show higher inhibition strength than the controls. Alternatively, at approximately equal inhibition strength, inhibitors of the invention have lower partition coefficients.

SMILES	Inhibition Strength No.
Sc1nnnn1-c1ccccc1 [CI-1, phenylmercaptotetrazole, reference compound]	80
CCn1nnnc1S [CI-2, reference compound]	15
CCCCCCCCc1nn[nH]n1 [CI-3, reference compound]	18
CCCCCCCCCSc1nn[nH]n1 [CI-4, reference compound]	43
CCCCCCN(CCCCCC)c1nn[nH]n1 [CI-5, reference compound]	52
CCCCCOc1ccc(-c2nn[nH]n2)cc1 [CI-6, reference compound]	16
O=C(Oc1ccccc1)c1ccc2[nH]nnc2c1 [CI-7, reference compound]	40
CCOc1cc2nn[nH]c2cc1OCC [CI-8, reference compound]	35
CCCCCCCCCSCc1nn[nH]n1 [Compound I-5]	95
CCCCCCCCSCCc1nn[nH]n1 [Compound I-21]	95
CCCCCCCSCCCc1nn[nH]n1 [Compound I-22]	94
CCCCCCSCCCc1nn[nH]n1 [Compound I-23]	77
CCCSCCCc1nn[nH]n1 [Compound I-24]	20
CCCCSCCCOc1ccc(-c2nn[nH]n2)cc1 [Compound I-26]	67
CCCCSCCN(CCSCCCC)c1nn[nH]n1 [Compound I-37]	66
CCCCSCCCCCCc1nn[nH]n1 [Compound I-51]	83
CCSCCSCCCc1nn[nH]n1 [Compound I-134]	77
CCCSCCSCc1ccccc1-c1nn[nH]n1 [Compound I-136]	84
CCCSCCOC(=O)c1ccc2[nH]nnc2c1 [Compound I-137]	86
CCCSc1ccc2[nH]nnc2c1 [Compound I-138]	69
CSCCSc1ccc2[nH]nnc2c1 [Compound I-139, 6'-(2-methylthioethylthio)benzotriazole]	88
